In PMC7432475, “β-Carbolines in Experiments on Laboratory Animals” (International Journal of Molecular Sciences, 2020):
pIC50: −log10 of the molar value. In brackets after ≈: the same amount, converted by molar mass. Like-named read-outs stand apart in the source and are kept apart here.

How the values were obtained:
[1] = tested on: primary mesencephalic dopaminergic cell culture derived from embryonic mice; conditions: cited from earlier work
[2] = tested on: caspase-3; set-up: method as in PMID 17913302; conditions: primary mesencephalic dopaminergic cell culture from embryonic mice; cited from earlier work
[3] = tested on: FAS, Gadd45a, Hspb1; Cxcl9, Irf1, Fasl, Icam1, Tnf, Vcam1; set-up: method as in PMID 17913302; conditions: cited from earlier work
[4] = tested on: rats; set-up: method as in PMID 22380576; conditions: compared with controls; cited from earlier work
[5] = tested on: α-synuclein; set-up: method as in PMID 20374418; conditions: primary dopaminergic cell cultures; cited from earlier work
[6] = tested on: Artn, Bdnf, Egln1, Tgfb2, and Ncam1; set-up: method as in PMID 32285253; conditions: cited from earlier work
[7] = tested on: male Sprague Dawley rats; type: in vivo; conditions: stage 1; rats that received the lowest amounts of H and NH
[8] = tested on: male Sprague Dawley rats; assay: Battery of behavioral tests, stage 1; type: in vivo; conditions: individual chemical standards added to the diet
Method: The experiment was conducted in the animal housing facility at the Institute of Human Nutrition and Dietetics, Poznań University of Life Sciences, under conditions of natural light and with the temperature maintained during the experiment at 19–22 °C, and with a relative humidity of 55–60%. Seventeen-month-old male Sprague Dawley rats originating from a Charles River Laboratories farm were used in the experiment. The age of the rats corresponded to 51 years of human life. For the first ten days of the experiment (the adaptation period), the rats were fed ad libitum with a standard laboratory diet and water. The experiment was conducted in two stages. […] The food consumption of the individual rats was monitored daily by measuring the difference between the amount of diet supplied each day and the amount of diet remaining. Feces were collected for ten days in the seventh week of the experiment, and water content, protein, fat, dietary fiber, and ash were determined using standard analytical methods. Body mass was measured every seven days using an electronic balance. […]
A classic labyrinth (110 × 65 cm) was used, with corridors about […], located on the table raised 50 cm from the ground. […] The time needed to complete the route between the two points of departure and arrival was measured. […]

[9] = tested on: MRC-5 cells; assay: Real-time cell proliferation analysis by xCELLigence system, MRC-5; type: cell-based, human; conditions: for IC50 / pIC50: Homo sapiens, MRC5; for IC50: corresponds to ~50 µM, read-out: concentration giving 50% decrease in MRC-5 cell viability, converted; for pIC50: xCELLigence, read-out: concentration giving 50% decrease in MRC-5 cell viability; for cell proliferation rate compared to the control: 24 h after administration, 1–25 µM; for cytotoxic effect on the MRC-5 cell line: low concentration range (1–25 µM)
Method: (§1) Normal human lung fibroblasts (MRC-5) were purchased from ECACC, and human skin fibroblasts isolated from a person with Parkinson’s disease (AG20445) were purchased from the Coriell Institute. The cells were cultured in Eagle’s Minimum Essential Medium (EMEM, Corning) supplemented with antibiotics (Penicillin-Streptomycin Solution (ATCC) and 10% or 15% FBS (Sigma-Aldrich), respectively. Both cell lines were cultured at 37 °C, with the addition of 5% CO2 to the atmosphere.
(§2) Cell proliferation analysis was performed using an xCELLigence system (Roche). The cells were seeded in sixteen-well E-plates (Roche) at a density of 7.5 × 10^3 per well. After 24 h, the cells were treated with H, NH, and both in final concentrations of 1, 5, 10, 25, 50, and 100 μM. The control cells were cultured in the supplemented medium only. The real-time proliferation of the cells was estimated based on impedance measurement, expressed as a Cell Index (CI) value. The CI was monitored at 30 min intervals from the time of plating for six days.

[10] = tested on: AG20445 (PD cells); assay: Real-time cell proliferation analysis by xCELLigence system, AG20445; type: cell-based, human; conditions: 24 h after treatment, range of 1–50 µM
Method: as §1, §2

[11] = tested on: MRC-5 cells; assay: Apoptosis/necrosis assay (Casp 3/7-FITC/7-AAD flow cytometry), MRC-5; type: cell-based, human; conditions: 24 h, 5, 10, and 25 µM (Figure 2c)
Method: as §1
(§3) The apoptosis/necrosis assay was performed by double staining with CellEvent Caspase 3/7-FITC (Thermo Fisher Scientific) and 7-aminoactinomycin D (BD Pharmigen) fluorescent dyes. Briefly, the cells (4 × 10^5) were seeded onto six-well plates and incubated until 70–80% confluency. On the next day, the cells were treated with β-carbolines in a final concentration of 5, 10, and 25 µM. Afterward, the cells were detached with trypsin (Thermo Fisher Scientific), washed twice with Dulbecco’s Phosphate Buffered Saline (Thermo Fisher Scientific), and stained with fluorescent dyes for 30 min at 37 °C in the dark, in line with the manufacturer’s protocol. Cells were analyzed immediately with 488 nm excitation using an Accuri C6 flow cytometer (Becton Dickinson).

[12] = tested on: AG20445 cells; assay: Apoptosis/necrosis assay (Casp 3/7-FITC/7-AAD flow cytometry), AG20445; type: cell-based, human; conditions: 24 h, 5, 10, and 25 µM (Figure S2b)
Method: as §1, §3

[13] = for share of the carboline taken in that was found in the blood: from average body mass, feed consumption and concentration in the feed; for increase of the carboline level in plasma versus control diet / Harman (ng/mL) in animal blood: stage I; for increase of the carboline level in plasma versus control diet: at the greatest addition to the diet; for Harman (ng/mL) in animal blood: fourteen weeks, n = 6
[14] = tested on: rats; set-up: method as in PMID 23107644; conditions: the two higher doses (5.0 mg/kg and 7.5 mg/kg); cited from earlier work
[15] = tested on: mice; set-up: method as in PMID 16183262; conditions: H 5–15 mg/kg i.p., NH 2.5–10 mg/kg i.p.; cited from earlier work
[16] = tested on: monoamine oxidase; set-up: method as in PMID 8957221; conditions: cited from earlier work
[17] = tested on: KB; set-up: method as in PMID 10612592; conditions: cited from earlier work
[18] = tested on: A549; set-up: method as in PMID 10612592; conditions: cited from earlier work
[19] = tested on: CAKI-1; set-up: method as in PMID 10612592; conditions: cited from earlier work
[20] = tested on: MCF-7; set-up: method as in PMID 10612592; conditions: cited from earlier work
[21] = tested on: IA9; set-up: method as in PMID 10612592; conditions: cited from earlier work
[22] = tested on: SK-MEL-2; set-up: method as in PMID 10612592; conditions: cited from earlier work
[23] = tested on: U-87-MG; set-up: method as in PMID 10612592; conditions: cited from earlier work
[24] = tested on: HEL; set-up: method as in PMID 10612592; conditions: cited from earlier work
[25] = tested on: yeast and mammalian cells; set-up: method as in PMID 17545209; conditions: cited from earlier work
[26] = in 100g, stage I

Cn1c2ccccc2c2cc[n+](C)cc21 [2,9-dimethyl-BC]
ATP content [1]: decreased | free radical production [1]: increased | mitochondrial membrane potential [1]: decreased | respiratory activity [1]: decreased | toxic effects on dopaminergic neurons and other cell constituents ([1]; primary dopaminergic culture): highly toxic effects

Cn1c2ccccc2c2ccncc21 [9-me-BC, 9-methyl-β-carboline]
number of dopaminergic neurons ([1]; concentration-dependent manner): capable of increasing the number of dopaminergic neurons | number of necrotic cells ([1]; primary mesencephalic dopaminergic cell culture from embryonic mice): reduced the number of necrotic cells | caspase-3 activity [2]: decrease of caspase-3 activity | expression of inflammation-related genes like Cxcl9, Irf1, Fasl, Icam1, Tnf, and Vcam1 [3]: reduced | expression of proteins in apoptosis-relevant pathways like FAS, Gadd45a, and Hspb1 [3]: downregulated | acquisition in a hippocampus-dependent task [4]: significantly accelerated acquisition | content of α-synuclein [5]: lowered | gene expression of neurotrophic factors like Artn, Bdnf, Egln1, Tgfb2, and Ncam1 [6]: stimulated

Cc1nccc2c1[nH]c1ccccc12 [H, harman]
Porsolt test: mobility [7]: more mobile than the control animals | effect on the animals' behavior [8]: did not produce a very marked effect | IC50 [9]: 9.11 µg/mL | pIC50 [9]: ~4.30 | cell proliferation rate compared to the control ([9]; MRC-5): significant increase in the cell proliferation rate | cytotoxic effect on the MRC-5 cell line [9]: neither H nor NH showed any cytotoxic effect | CI values (proliferation) [10]: significant increase in CI values | induction of apoptosis [11]: do not induce apoptosis | induction of apoptosis [12]: do not induce apoptosis | share of the carboline taken in that was found in the blood [13]: about 0.15% | increase of the carboline level in plasma versus control diet [13]: increased by a factor of about four | Harman (ng/mL) in animal blood ([13]; group H1 = 10 µg H/kg of exp. diet): 0.038 ng/mL | Harman (ng/mL) in animal blood ([13]; group H2 = 15 µg H/kg of exp. diet): 0.052 ng/mL | Harman (ng/mL) in animal blood ([13]; group H3 = 20 µg H/kg of exp. diet): 0.084 ng/mL | errors in working memory [14]: significantly fewer errors in working memory | antidepressant action on mice [15]: positive effects | monoamine oxidase inhibition [16]: potent monoamine oxidase inhibitor | ED50 [17]: 8.9 µg/mL (≈ 48.8 µM) | ED50 [18]: 9.3 µg/mL (≈ 51 µM) | ED50 [19]: 8.0 µg/mL (≈ 43.9 µM) | ED50 [20]: 19.0 µg/mL (≈ 104 µM) | ED50 [21]: 6.1 µg/mL (≈ 33.5 µM) | ED50 [22]: > 20 µg/mL | ED50 [23]: 19.0 µg/mL (≈ 104 µM) | ED50 [24]: 9.8 µg/mL (≈ 53.8 µM) | protective effect against H2O2 and paraquat oxidative agents [25]: significant protective effect

c1ccc2c(c1)[nH]c1cnccc12 [NH, norharman]
Porsolt test: mobility [7]: more mobile than the control animals | effect on the animals' behavior [8]: did not produce a very marked effect | IC50 [9]: 8.41 µg/mL | pIC50 [9]: ~4.30 | cell proliferation rate compared to the control ([9]; MRC-5): significant increase in the cell proliferation rate | proliferation rate (ranking) ([9]; MRC-5, final concentrations of 1, 5, and 10 μM): greatest proliferation rate | cytotoxic effect on the MRC-5 cell line [9]: neither H nor NH showed any cytotoxic effect | CI values (proliferation) [10]: significant increase in CI values | induction of apoptosis [11]: do not induce apoptosis | induction of apoptosis [12]: do not induce apoptosis | share of the carboline taken in that was found in the blood [13]: about 0.5% | increase of the carboline level in plasma versus control diet [13]: increased two-fold | IDF [g] (insoluble dietary fiber) in feces ([26]; group NH1 (8 µg NH/kg diet)): 55,36 g | SDF [g] (soluble dietary fiber) in feces ([26]; group NH1 (8 µg NH/kg diet)): 0,04 g | IDF [g] (insoluble dietary fiber) in feces ([26]; group NH2 (12 µg NH/kg diet)): 54,46 g | SDF [g] (soluble dietary fiber) in feces ([26]; group NH2 (12 µg NH/kg diet)): 0,06 g | IDF [g] (insoluble dietary fiber) in feces ([26]; group NH3 (16 µg NH/kg diet)): 53,97 g | SDF [g] (soluble dietary fiber) in feces ([26]; group NH3 (16 µg NH/kg diet)): 0,07 g | antidepressant action on mice [15]: positive effects
